Experimental data as given in publication PMC5902495, “Synthesis of Symmetrical Tetrameric Conjugates of the Radiolanthanide Chelator DOTPI for Application in Endoradiotherapy by Means of Click Chemistry” (Frontiers in Chemistry, 2018).
Where “and” joins values, the source holds several entries; their conditions need not be identical. Equal values may be shown once. Read-outs that look alike come from different tables or passages of the source. Marks after values point to notes of the source that are not given here.

How the values were obtained:
[1] = cited from earlier work
[2] = 25°C, cited from earlier work
[3] = 25°C, cited from earlier work; remark: listed apart in the source
[4] = cited from earlier work; remark: listed apart in the source
[5] = Stability and protonation constants of Cu^II complexes (spectrophotometry, pH-potentiometry); format: physicochemical; details: 25°C
Experimental: Stability constant of Cu(DOTPI) complex was determined by spectrophotometry, studying the Cu^II-DOTPI systems at the absorption band of Cu^II-complex at [H^+] = 0.01– 0.2 M over the wavelength range of 400–800 nm. Concentrations of Cu^II and DOTPI were 1 mM. The H^+ concentration in the samples was adjusted by addition of calculated amounts of 2.0 M HCl, while ionic strength was not constant in these samples. Samples were kept at 25°C for a week. Absorbance values were determined at 9 wavelengths (550, 575, 600, 625, 650, 675, 700, 725, and 750 nm). For calculation of stability and protonation constants of Cu(DOTPI), molar absorptivities of CuCl2, and Cu(HxL) species (wherein x = 0, 1, 2 …5) were determined by recording the spectra of 1.0 × 10^−3, 2.0 × 10^−3 and 3.0 × 10^−3 M solutions of CuCl2 and Cu(DOTPI) in the pH range of 1.7–11.7. The protonation constants of the complexes Cu(DOTPI) and the stability and protonation constants of the dinuclear Cu2(DOTPI) complexes were determined by pH-potentiometric titrations, made at 1:1 and 2:1 metal to ligand concentration ratios.
The stability constant of the Cu(DOTPI(Chx)4) complex has been determined by spectrophotometry with the use of competition reactions between DOTPI(Chx)4 and EDTA for the Cu^2+ at pH = 5.0. The concentration of Cu(EDTA) was 0.2 mM, while that of the DOTPI(Chx)4 was varied between 0.1 and 1.0 mM (5 samples). The samples were kept at 25°C for 2 weeks. The absorbance values and the molar absorptivities of CuCl2, Cu(DOTPI(Chx)4), and Cu(EDTA) have been determined at 11 wavelength (300, 304, 308, 312, 316, 320, 324, 328, 332, 336, and 340 nm) values between 300 and 340 nm. The molar absorptivities of CuCl2, Cu(DOTPI(Chx)4), and Cu(EDTA) were deteremined in 0.05, 0.1, 0.2, 0.3, and 0.4 mM solutions. The absorbance and pH values were determined in the samples after the equilibrium was reached (the time needed to reach the equilibria was determined by spectrophotometry). The spectrophotometric measurements were made with the use of 1.0 cm cells with a Cary 1E spectrophotometer at 25°C. The protonation constants of Cu(DOTPI(Chx)4) complex were determined by pH-potentiometric titrations at 1:1 metal to ligand molar ratio.
For pH measurements and titrations, a Metrohm 785 DMP Titrino titration workstation and a Metrohm-6.0233.100 combined electrode were used. Equilibrium measurements were carried out at a constant ionic strength (0.15 M NaCl) in 6 mL samples at 25°C. The solutions were stirred, and constantly purged with N2. The titrations were performed in a pH range of 1.7–11.7. KH-phthalate (pH = 4.005) and borax (pH = 9.177) buffers were used to calibrate the pH meter. For calculation of [H^+] from measured pH values, the method proposed by Irving et al. was used (Irving et al., [1967]). A 0.01 M HCl solution was titrated with the standardized NaOH solution in the presence of 0.1 M NaCl. Differences between the measured (pHread) and calculated pH (–log[H^+]) values were used to obtain the equilibrium H^+ concentration from the pH values, measured in the titration experiments. For the equilibrium calculations, the stoichiometric water ionic product (pKw) is also needed to calculate [H^+] values in basic conditions. […] For the calculation of the equilibrium constants the program PSEQUAD (Zekany and Nagypal, [1985]) was used.
(§1) 2. Protonation and complexation equilibria of DOTPI and
(§2) The protonation processes of the DOTPI and DOTPI(Chx)4, ligands have been studied by pH-potentiometry. The protonation constants (logKiH) of ligands are defined according to Eq. (1).
(§3) The stability and protonation constants of DOTPI and DOTPI(Chx)4 complexes with several metal ions were determined by pH-potentiometric and UV/Vis spectrophotometric, methods.
The stability and protonation constants of the metal complexes formed with the DOTPI and […]

[6] = Stability and protonation constants of Zn^II complexes (pH-potentiometry); format: physicochemical; details: 25°C
Source text: (§4) For determining the protonation constants of DOTPI(Chx)4 and DOTPI three parallel pH-potentiometric titration were made with 0.2 M NaOH in 0.002 M ligand solutions. The stability and protonation constants of the Ca^II and Zn^II complexes formed with DOTPI(Chx)4 and DOTPI ligands have been determined by direct pH-potentiometric titration made at 1:1 and 2:1 metal to ligand concentration ratios. (the concentration of ligands was 0.002 M). For the calculation of the logKML and logKMLHi values, the mL base—pH data used were obtained in the pH range 1.7–12.0.
(§5) For pH measurements and titrations, a Metrohm 785 DMP Titrino titration workstation and a Metrohm-6.0233.100 combined electrode were used. Equilibrium measurements were carried out at a constant ionic strength (0.15 M NaCl) in 6 mL samples at 25°C. The solutions were stirred, and constantly purged with N2. The titrations were performed in a pH range of 1.7–11.7. KH-phthalate (pH = 4.005) and borax (pH = 9.177) buffers were used to calibrate the pH meter. For calculation of [H^+] from measured pH values, the method proposed by Irving et al. was used (Irving et al., [1967]). A 0.01 M HCl solution was titrated with the standardized NaOH solution in the presence of 0.1 M NaCl. Differences between the measured (pHread) and calculated pH (–log[H^+]) values were used to obtain the equilibrium H^+ concentration from the pH values, measured in the titration experiments. For the equilibrium calculations, the stoichiometric water ionic product (pKw) is also needed to calculate [H^+] values in basic conditions. The VNaOH – pHread data pairs of the HCl – NaOH titration obtained in the pH range 10.5–12 have been used to calculate the pKw value (pKw = 13.85). For the calculation of the equilibrium constants the program PSEQUAD (Zekany and Nagypal, [1985]) was used.
as §1, §2, §3
(§6) The stability and protonation constants of the metal complexes formed with the DOTPI and DOTPI(Chx)4, ligands, defined by Eqs. […]
(§7) where i = 1, 2, 3…5. The KML and KMHiL values characterizing the formation of DOTPI and DOTPI(Chx)4 complexes of CaII and ZnII have been calculated from the pH-potentiometric titration data obtained at 1:1 metal to ligand concentration ratios. The protonation constants of the complexes Cu(DOTPI) and Cu(DOTPI( Chx)4) were also determined by pH-potentiometric titrations, made at 1:1 metal to ligand concentration ratio. The pH-potentiometric titrations of DOTPI ligand were also performed at 2:1 metal-to-ligand ratio in order to examine the possible formation of dinuclear CaII-, ZnII-, and CuII-DOTPI complexes.
(§8) The stability and protonation constants of the dinuclear complexes formed with the DOTPI […]
(§9) where i=1 and 2. In calculating the equilibrium constants, the best fit of the mL base – pH data was obtained by assuming the formation of ML, MHL, MH 2L, MH3L, MH4L, MH5L, M2L, M2LH, and M2LH2 complexes with DOTPI and DOTPI(Chx)4.
(§10) (also on this page, place not known: ]H][LH[ ]LH[K 1i iH + − = DOTPI( Chx)4 f ormed ]L][M[ ]ML[K ML = ]H][LMH[ ]LMH[K 1i i LMHi + − = i 3 …5. Ca II Zn II -potentiometric pH - metal -to-ligand Cu II-DOTPI ]M][ML[ ]LM[K 2 LM2 = ]H][LHM[ ]LHM[K 1i2 i2 LHM i2 + − = pH MH 4L,) […]

[7] = Protonation constants of ligands by pH-potentiometry; format: physicochemical; details: 25°C, I = 0.15 M NaCl
Source text: as §4, §5, §1, §2, §3, §6, §7, §8, §9, §10

[8] = Stability and protonation constants of Ca^II complexes (pH-potentiometry); format: physicochemical; details: 25°C, I = 0.15 M NaCl, potentiometry
Source text: as §4, §5, §1, §2, §3, §6
where i = 1, 2, 3…5. The KML and KMHiL values characterizing the formation of DOTPI and DOTPI(Chx)4 complexes of CaII and ZnII have been calculated from the pH-potentiometric titration data obtained at 1:1 metal to ligand concentration ratios. The protonation constants of the complexes Cu(DOTPI) and Cu(DOTPI( Chx)4) were also determined by pH-potentiometric titrations, made at 1:1 metal to ligand concentration ratio. […]

[9] = parameters: method as in Chaves et al., [1992]; details: ref Chaves et al., [1992]; cited from earlier work
[10] = I = 0.15 M NaCl, ref Takács et al., [2014]
[11] = 25°C, I = 0.15 M NaCl, ref Baranyai et al., [2010]
[12] = I = 0.1 M KNO3, ref Baranyai et al., [2007]
[13] = I = 0.1 M KNO3, ref Desreux et al., [1981]
[14] = 25°C, I = 0.1 M KNO3, ref Bazakas and Lukeš, [1995], Kotková et al., [2009]
[15] = 25°C, I = 0.1 M KNO3, ref Lázár et al., [1991]

## O=C([O-])CN(CCN(CC(=O)[O-])CC(=O)[O-])CC(=O)[O-].[Cu+2] [Cu(EDTA), reference compound]
[1]; taken from the literature
  stability constant of the Cu(EDTA) complex: 19.05

## O=C(O)CN1CCN(CC(=O)O)CCN(CC(=O)O)CCN(CC(=O)O)CC1 [DOTA, 1,4,7,10-tetraazacyclododecane-1,4,7,10-tetraacetic acid]
[1]; 25°C, 0.15 M NaCl
  protonation constant CuH2L: 3.41 (1)
  protonation constant CuH3L: 0.83 (2)
  protonation constant CuHL: 4.08 (1)
[1]; 25°C, I = 0.15 M NaCl, ref Takács et al., [2014]
  logKML, CuL: 21.97 (1)
[2]; 0.15 M NaCl
  protonation constant CaHL: 3.90 (2)
[2]; [10]
  logKML, CaL: 13.84 (1)
[3]; 0.15 M NaCl
  protonation constant ZnH2L: 3.40 (1)
  protonation constant ZnHL: 4.16 (2)
[3]; [10]
  logKML, ZnL: 17.35 (1)
[4]; [11]
  log K1H: 9.14
  log K2H: 9.21
  log K3H: 4.48
  log K4H: 4.03
  log K5H: 1.99
  log K6H: 1.58
  Σlog KiH (total basicity): 30.43

## O=C(CCP(=O)(O)CN1CCN(CP(=O)(O)CCC(=O)NC2CCCCC2)CCN(CP(=O)(O)CCC(=O)NC2CCCCC2)CCN(CP(=O)(O)CCC(=O)NC2CCCCC2)CC1)NC1CCCCC1 [DOTPI(Chx)4]
[5]; 0.15 M NaCl
  protonation constant CuH2L: 1.55 (2)
  protonation constant CuHL: 2.46 (1)
[5]; I = 0.15 M NaCl, UV/Vis spectroscopy
  logKML, CuL: 20.42 (1)^a
[6]; 0.15 M NaCl
  protonation constant ZnHL: 2.44 (8)
[6]; I = 0.15 M NaCl, potentiometry
  logKML, ZnL: 15.13 (1)^b
[7]
  log K1H: 9.89 (1)
  log K2H: 7.73 (1)
  log K3H: 3.34 (1)
[7]; distant carboxylate groups of DOTPI not considered
  Σlog KiH (total basicity): 20.96
[8]
  logKML, CaL: 8.99 (2)^b

## O=[PH](O)CN1CCN(C[PH](=O)O)CCN(C[PH](=O)O)CCN(C[PH](=O)O)CC1 [DOTP^H]
[1]; 25°C, I = 0.1 M KNO3, ref Baranyai et al., [2007]
  logKML, CuL: 18.03
[1]; 25°C, I = 0.1 M KNO3, ref Desreux et al., [1981]
  logKML, CuL: 19.59
[2]; 0.1 M KNO3
  protonation constant CaHL: 3.94
[2]; [12]
  logKML, CaL: 9.46
[2]; [13]
  logKML, CaL: 9.39
[3]; 0.1 M KNO3
  protonation constant ZnHL: 2.62
[3]; [12]
  logKML, ZnL: 14.60
[3]; [13]
  logKML, ZnL: 15.80
[4]; [14]
  log K1H: 10.41 and 10.58
  log K2H: 6.83 and 6.93
  log K3H: 1.97 and 1.90
  Σlog KiH (total basicity): 19.21 and 19.41
[4]; [15]
  log K1H: 10.94
  log K2H: 8.24
  log K3H: 3.71
  Σlog KiH (total basicity): 22.89

## O=C(O)CN(CCN(CC(=O)O)CC(=O)O)CC(=O)O [EDTA, ethylenediamine-tetraacetic acid]
[4]; taken from the literature
  logK1H: 9.43
  logK2H: 6.12
  logK3H: 2.85
  logK4H: 2.18
  logK5H: 1.77

## O=C([O-])CN1CCN(CC(=O)O)CCN(CC(=O)O)CCN(CC(=O)O)CC1.[Na+] [[Na(DOTA)]^3−]
[9]
  logKNaL: 4.38
